According to patent US20030220312A1, “Epoxy-steroidal aldosterone antagonist and calcium channel blocker combination therapy for treatment of cardiovascular disorders” (G.D. Searle & Co., priority 2000, published 2003):

Columns and labels:
hypertensive rats = experiment: Assay C: Hypertensive Rat Model (renal artery clip); type: in vivo; conditions: combination of calcium channel blocker and eplerenone versus either component alone, 12 to 24 weeks, expected
Description: Assay “C”: Hypertensive Rat Model Male rats are made hypertensive by placing a silver clip with an aperture of 240 microns on the left renal artery, leaving the contralateral kidney untouched. Sham controls undergo the-same procedure but without attachment of the clip. One week prior to the surgery, animals to be made hypertensive are divided into separate groups and drug treatment is begun. […] The hearts are removed, weighed, measured and fixed in formalin. Collagen content of heart sections are evaluated using computerized image analysis of picrosirius stained sections.

[1] = system: patients with mild to moderate hypertension; experiment: Example 19 clinical study: eplerenone versus placebo co-administered with a calcium-channel blocker; type: in vivo, human
Description: This multicenter, randomized, double-blind, placebo-controlled, placebo run-in, parallel group trial involving a minimum of 120 randomized patients with hypertension (seated diastolic blood pressure [seDBP] ≧95 mmHg and <110 mmHg and seated systolic BP [seSBP] <180 mmHg while taking a CCB) will consist of a one- to two-week pretreatment screening period followed by a two- to four-week single-blind placebo run-in period and an 8-week double-blind treatment period. Eligible patients will be patients currently receiving a CCB as part of their antihypertensive medication. […] The dose will not be changed for patients with adequate BP control. […] If the dose has been increased at Week 2, the patient will be reassessed at Week 6. […] If BP is uncontrolled at Week 6 and the dose has been increased at Week 2 or Week 4, the patient must be withdrawn from the study. If symptomatic hypotension (i.e., lightheadedness, dizziness, or syncope associated with low BP) occurs at any time during the study, or if DBP is ≧110 mmHg or SBP is ≧180 mmHg at any time during the trial, the patient must be withdrawn. Patients will receive study medication for a total of 8 weeks.
Patients will return to the clinic for evaluations at Weeks 0 (baseline), 2, 4, 6, 8, and 9. Heart rate, BP, adverse events and concomitant medication will be assessed at each visit. Hematology and biochemistry evaluations and urinalysis for safety will be at Weeks 0, 8, and 9. Serum potassium levels will be determined at Weeks 0 (baseline), 2, 4, 6, 8, and 9. Plasma renin, serum aldosterone, and plasma cortisol will be determined at Weeks 0 and 8. A 12-lead electrocardiogram and physical examination will be done at screening and at Week 9.
The study will consist of a one- to two-week pretreatment screening period followed by a two- to four-week single-blind placebo run-in treatment period, prior to randomization to an eight-week double-blind treatment period.
Eligible patients will be either currently receiving a CCB alone, or receiving a CCB as part of their antihypertensive medication. […] The dose will not be changed for patients with adequate BP control. […] If the dose has been increased at Week 2, the patient will be reassessed at Week 6. The dose of study medication will not be changed for patients with adequate BP control. […] If BP is uncontrolled at Week 6 and the dose has been increased at Week 2 or Week 4, the patient must be withdrawn from the study. The dose of study medication will not be changed for patients with adequate BP control. If symptomatic hypotension (i.e., lightheadedness, dizziness, or syncope associated with low BP) occurs at any time during the study, or if DBP is ≧110 mmHg or SBP is ≧180 mmHg at any time during the study, the patient must be withdrawn. Patients will receive study medication for a total of eight weeks.
Patients will return to the clinic for evaluations at Weeks 0, 2, 4, 6, 8, and 9. Heart rate, BP, adverse events and concomitant medication will be assessed at each visit. Hematology and biochemistry evaluations and urinalysis for safety will be at Weeks 0, 8, and 9. Serum potassium levels will be determined at Weeks 0, 2, 4, 6, 8, and 9. Plasma renin, serum aldosterone, and plasma cortisol will be determined at Weeks 0 and 8. […]
BP evaluations will be analyzed at each visit using two-way analysis of covariance (ANCOVA) with the baseline measurement as the covariate and treatment and center as factors. […]

[2] = X-ray powder diffraction estimate of Form H content of dried solids; type: physicochemical; conditions: for Estimated Weight Percent of Form H: dried solids from methyl ethyl ketone crystallization
Procedure: The weight percent of the diepoxide or 11,12-epoxide in each sample is given in Tables X-6A and X-6B, respectively. A micro-flea magnetic stirrer was added to each scintillation vial along with 1 mL of methyl ethyl ketone. The vials were loosely capped and the solid dissolved by heating to reflux on a hot plate with magnetic stirring. Once the solids were dissolved, the solutions were allowed to cool to room temperature on the hot plate. Magnetic stirring was maintained during the cooling period. After the solutions reached room temperature, the solids were collected by vacuum filtration and immediately analyzed by X-ray powder diffraction (XPRD). The solids were then placed in a 100° C. oven and dried for one hour at ambient pressure. The dried solids were analyzed by XPRD for Form H content by monitoring the area of the Form H diffraction peak at about 12.1 degrees two theta. All XPRD diffraction patterns were recorded using an Inel Multipurpose Diffractometer.
Variables in the design of the experiments included cooling rate, starting material purity level, and end point temperature of crystallization.
High endpoint was defined as 45° C. and low endpoint was defined as 5° C. High cooling rate was defined as 3° C./minute cooling and low cooling rate was defined as 0.1° C./minute cooling.
After a background reading was taken with the FTIR, 250 mL of methyl ethyl ketone was charged to a 1 L Mettler RC-1, MP10 reactor and stirred at 100 rpm. […] Agitation was increased to 500 rpm to suspend solids and the batch temperature was increased to 80° C. […] Black or white specks generally were visible in the resulting transparent solution. The batch temperature was then ramp cooled at the desired rate to the desired endpoint, where it was maintained for one hour before being pulled into a transfer flask and filtered. […] reactor, transfer flask and cake were then washed with 120 mL methyl ethyl ketone. Once the wash was pulled through the cake, the stopped. About 10 grams of each wet cake were dried in a vacuum oven under nominal conditions of 75° C. with a light nitrogen bleed. […]

[3] = system: patients with heart failure after an acute myocardial infarction; experiment: Example 20 clinical study: eplerenone plus CCB in heart failure following acute myocardial infarction; type: in vivo, human; conditions: expected
Description: Secondary endpoints include cardiovascular morbidity and mortality. […] (a) pulmonary edema (bilateral posttussive crackles extending at least 1⁄3 of the way up the lung fields in the absence of significant chronic pulmonary disease); or (b) chest x-ray showing pulmonary venous congestion with interstitial or alveolar edema; or (c) auscultatory evidence of a third heart sound (S3) with persistent tachycardia (>100 beats per minute). Eligible patients may be identified for inclusion at any time following emergency room evaluation and presumptive diagnosis of AMI with HF. […] Patients with implanted cardiac defibrillators are excluded. Patients will receive CCB therapy and may have received anticoagulants and antiplatelet agents, and may have received thrombolytics or emergency angioplasty. […] Serum potassium will be determined at 48 hours after initiation of treatment, at 1 and 5 weeks, at all other scheduled study visits, and within one week following any dose change. […] Vital signs (seated heart rate and BP), New York Heart Association (NYHA) functional class, adverse events, and selected concurrent medications will be recorded at every visit. […]

[4] = system: rats with myocardial infarction; experiment: Assay D: Myocardial Infarction Rat Model (coronary ligation); type: in vivo; conditions: combination of calcium channel blocker and eplerenone versus either component alone, six weeks, expected
Procedure: Assay “D”: Myocardial Infarction Rat Model: Male rats are anesthetized and the heart is exteriorized following a left sided thoracotomy. The left anterior descending coronary artery is ligated with a suture. The thorax is closed and the animal recovers. Sham animals have the suture passed through without ligation. One week prior to the surgery, animals to undergo infarction are divided into separate groups and drug treatment is begun. Groups of animals are administered vehicle, calcium channel blocker alone, eplerenone alone, and combinations of calcium channel blocker and eplerenone, at various doses, as follow: After six weeks, systolic and diastolic blood pressure, left ventricular end diastolic pressure, left ventricular dP/dT, and heart rate are evaluated. The hearts are removed, weighed, measured and fixed in formalin. Collagen content of heart sections are evaluated using computerized image analysis of picrosirius stained sections.

[5] = Form H content of the Form H seeding product by DSC; type: physicochemical; conditions: cooling rate (0) 1.5° C./min, cooling endpoint (0) 25° C., 100.8% eplerenone seeded with Form H
Description: The X-ray powder diffraction model, however, had not been tested for linearity beyond about 15% Form H. This experiment was the only one of the four experiments of this Example where Form H was created in the absence of the diepoxide.

[6] = Thermogravimetry / DSC of eplerenone solvates (desolvation); type: physicochemical; conditions: eplerenone solvate of the named solvent; extrapolated from final solvent weight loss step, thermogravimetric analysis at 10° C./minute under nitrogen purge
Procedure: Each sample (1-10 mg) was placed in an unsealed aluminum pan and heated at 10° C./minute.
Thermogravimetric analysis of solvates was performed using a TA Instruments TGA 2950 thermogravimetric analyzer. Samples were placed in an unsealed aluminum pan under nitrogen purge. Starting temperature was 25° C. with the temperature increased at a rate of about 10° C./minute.

[7] = system: myocardial fibrosis in animal models; conditions: literature (Klug et al; Brilla et al); cited from earlier work
[8] = CCB and eplerenone compared to CCB and placebo, Week 8
[9] = eplerenone 50-100 mg plus CCB versus CCB and placebo, eight weeks, hypertensive patients

Compound | Desolvation Temperature [6] | further results
COC(=O)[C@@H]1CC2=CC(=O)CC[C@]2(C)[C@@]23O[C@@H]2C[C@@]2(C)[C@@H](CC[C@@]24CCC(=O)O4)[C@H]13 [eplerenone, pregn-4-ene-7,21-dicarboxylic acid, 9,11-epoxy-17-hydroxy-3-oxo, γ-lactone, methyl ester, (7α,11α,17α)-] |  | cardiac performance (hypertensive rats): improvements in cardiac performance; change in active renin levels [1, 8]: greater increase; change in aldosterone levels [1, 8]: greater increase; change in mean diastolic blood pressure [1, 9]: greater for the dual therapy group, compared to monotherapy, but this difference did not reach statistical significance; change in systolic blood pressure [1, 9]: significant reduction; serious adverse events ([1]; eplerenone added to CCB therapy, eight weeks): no serious adverse events; Weight Percent Form H (XPRD) ([2]; cooling rate (+) 3° C./min, cooling endpoint (+) 45° C., impurity level (++) 61.1% purity eplerenone starting material, appears to be mixture of Form H and diepoxide): 100^5 Weight Percent; Estimated Weight Percent of Form H ([2]; 0% diepoxide in starting eplerenone mixture): None; Estimated Weight Percent of Form H ([2]; 1% diepoxide in starting eplerenone mixture): None; all cause mortality (primary end point) ([3]; eplerenone plus CCB relative to CCB alone): Improvement; secondary end points (cardiovascular mortality, hospitalizations, atrial fibrillation, stroke, quality of life) ([3]; eplerenone plus CCB versus CCB alone): Beneficial effects; cardiac performance [4]: improvements in cardiac performance; Weight Percent Form H when analyzed by DSC [5]: 100 Weight Percent
CCCCO [n-Butanol] | 103 °C | 
CCCCCCCCO [n-Octanol] | 116 °C | 
CC(=O)S[C@@H]1CC2=CC(=O)CC[C@]2(C)[C@H]2CC[C@@]3(C)[C@@H](CC[C@@]34CCC(=O)O4)[C@H]12 [spironolactone] |  | myocardial fibrosis [7]: prevents myocardial fibrosis
Acetone | 117 °C | 
Butyl Acetate | 108 °C | 
Chloroform | 125 °C | 
Ethanol | 166 °C | 
Ethyl Propionate | 122 °C | 
Isobutyl Acetate | 112 °C | 
Isopropanol | 121 °C | 
Methyl Acetate | 103 °C | 
Methyl Ethyl Ketone | 89 °C | 
Propyl Acetate | 130 °C | 
Propylene Glycol | 188 °C | 
Tetrahydrofuran | 136 °C | 
Toluene | 83 °C | 
t-Butyl Acetate | 109 °C | 
